Measurements reported in patent US7465715B2, “Method for treatment of multiple sclerosis” (Can-Fite Biopharma, Ltd., priority 2003, dated 2008).

Experiments:
[1] = test system: EAE; assay: Experimental autoimmune encephalomyelitis (EAE) induced with MBP in Lewis rats, clinical score; format: in vivo, female Lewis rats
[2] = target: T1, A1 receptor (Rattus norvegicus, UniProt P25099); conditions: cited from earlier work
T1 sequence (P25099 1-326): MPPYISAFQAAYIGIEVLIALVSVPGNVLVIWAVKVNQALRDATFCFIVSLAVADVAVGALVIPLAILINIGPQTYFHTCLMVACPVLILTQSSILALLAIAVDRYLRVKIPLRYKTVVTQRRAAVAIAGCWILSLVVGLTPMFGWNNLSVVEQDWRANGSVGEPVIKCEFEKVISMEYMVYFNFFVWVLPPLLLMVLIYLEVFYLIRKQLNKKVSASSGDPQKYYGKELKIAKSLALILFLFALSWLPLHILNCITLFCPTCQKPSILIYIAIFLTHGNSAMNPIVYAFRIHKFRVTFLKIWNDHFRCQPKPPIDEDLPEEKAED

[3] = test system: multiple sclerosis; conditions: patients having MS; cited from earlier work

SMILES	difference in the maximal clinical score between treated and control groups ([1]; 10 μg/kg PO BID from day 7, P<0.01, Student's t test)	severity of the disease in the treated group ([1]; 10 μg/kg PO BID from day 7 after disease induction)	clinical score in comparison to the control group ([1]; 10 μg/kg PO BID from day 7 after disease induction, score 0-5)	functional character at A1 receptors [2]	effect on the disease condition of MS patients [3]
CNC(=O)[C@H]1O[C@@H](n2cnc3c(NCc4cccc(I)c4)ncnc32)[C@H](O)[C@@H]1O [CF101, N^6-(3-iodobenzyl)-adenosine-5′-N-methyluronamide]	significant	significantly reduced	remarkably low clinical score		
Nc1nc(Cl)nc2c1ncn2[C@H]1C[C@H](O)[C@@H](CO)O1 [CdA, 2-chloro-2′-deoxyadenosine]				putative partial agonist	markedly ameliorate the disease condition
